Reference: patent publication US6977142B2, “High-throughput turbidometric assay for screening inhibitors of protein disulfide isomerase activity” (AGY Therapeutics, Inc., priority 2003, dated 2005)
Where “and” joins values, the source holds several entries; their conditions need not be identical. Equal values may be shown once. Where a SMILES comes first, the peptide text is derived from it.

Legend:
[1] = molecular target: T1, Protein disulfide isomerase (PDI) from bovine liver (Bos taurus, UniProt P05307); assay: High-throughput turbidometric assay of PDI-catalyzed insulin reduction (OD650, H2O2 stop); format: biochemical
T1 construct: Protein disulfide isomerase (PDI) from bovine liver (Catalog number P3818); purchased Sigma P3818; host or cells: bovine liver (tissue-derived enzyme)
T1 sequence (P05307 21-510): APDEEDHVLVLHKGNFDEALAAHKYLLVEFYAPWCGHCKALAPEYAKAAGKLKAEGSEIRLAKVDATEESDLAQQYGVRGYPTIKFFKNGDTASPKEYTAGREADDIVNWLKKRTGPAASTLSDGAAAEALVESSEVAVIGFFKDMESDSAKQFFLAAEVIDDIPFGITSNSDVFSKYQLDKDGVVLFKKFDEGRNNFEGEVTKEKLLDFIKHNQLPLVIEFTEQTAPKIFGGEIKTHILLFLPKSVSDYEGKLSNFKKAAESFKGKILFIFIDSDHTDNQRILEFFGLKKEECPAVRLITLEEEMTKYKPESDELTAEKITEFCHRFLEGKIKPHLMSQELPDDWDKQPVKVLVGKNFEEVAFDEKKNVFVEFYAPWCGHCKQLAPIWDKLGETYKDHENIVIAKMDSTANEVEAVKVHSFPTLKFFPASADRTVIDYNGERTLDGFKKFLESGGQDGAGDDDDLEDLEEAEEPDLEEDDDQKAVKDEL
Protocol: Protein disulfide isomerase (PDI) from bovine liver (Catalog number P3818), insulin from bovine pancreas (Catalog number 14011), dithiothreitol (Catalog number D9779), H2O2 (Catalog number H6520) and bacitracin (Catalog number B0125) were purchased from Sigma. A stock solution of 1.6 mM insulin was prepared by dissolving insulin in 0.1 N HCl. Clear polystyrene 384-well assay plates were obtained from Greiner (Catalog number 781101). All reagents used in this study were of analytical grade.
The assay utilized the method according to Bonfils (1998) Eur J Biochem 254:420–427, but was miniaturized in 384-well plates. The assay buffer consisted of 100 mM potassium phosphate and 0.2 mM EDTA, pH 7.0. In a standard room temperature assay, insulin from a 1.6 mM stock solution and PDI from a 5 mg/mL stock were added to final concentrations of 0.16 mM and 33 ug/mL in assay buffer, respectively. Aliquots of the reaction mixture were then added at 30 μL per well to 384-well assay plates. To initiate the reaction, 5 μL of 7 mM dithiothreitol (final concentration 1 mM) was added and quickly mixed. The enzyme reaction was monitored at 650 nm on a SpectraMax Plus plate reader (Molecular Devices, Sunnyvale, Calif.).
For high-throughput screening, a Biomek 2000 liquid handling system (Beckman-Coulter, Palo Alto, Calif.) was used to add 5 μL of 1 M positive control H2O2 to each well in column 24 of the assay plates. Then a Biomek FX384 pipettor (Beckman-Coulter, Palo Alto, Calif.) was programmed to automate the subsequent additions. The pipettor aspirated 29 μL of the enzyme/substrate mixture, applied a 0.5-μL air gap, dipped into DMSO to wash the pipette tip exterior, pipetted 1 μL of 300 μM compound, and then dispensed the entire volume into the assay plate. After the dispense step, the compound was mixed well with the enzyme and substrate. Following a 10 min pre-incubation, 5 μL of 7 mM dithiothreitol was dispensed into the reaction wells. This was followed immediately by a mixing step, in which 20 μL of the mixture was aspirated and dispensed twice in the well. The reaction was allowed to proceed for 30 min and stopped by adding 5 μL of 1 M H2O2 (final concentration 125 mM) to each well. The optical density of each well was measured at 650 nm on the SpectraMax Plus plate reader.
For data analysis, the results are presented as mean±standard deviation. Dose-response curves were fitted by least square regression using Prism (version 3.03). The Z′ factor was calculated according to Zhang et al. (1999) J Biomol Screen 4:67–73.

PDI = PDI (Homo sapiens, UniProt P07237); conditions: insulin reduction assay, reported in the literature; cited from earlier work
Chain of PDI (P07237 18-508, species assumed): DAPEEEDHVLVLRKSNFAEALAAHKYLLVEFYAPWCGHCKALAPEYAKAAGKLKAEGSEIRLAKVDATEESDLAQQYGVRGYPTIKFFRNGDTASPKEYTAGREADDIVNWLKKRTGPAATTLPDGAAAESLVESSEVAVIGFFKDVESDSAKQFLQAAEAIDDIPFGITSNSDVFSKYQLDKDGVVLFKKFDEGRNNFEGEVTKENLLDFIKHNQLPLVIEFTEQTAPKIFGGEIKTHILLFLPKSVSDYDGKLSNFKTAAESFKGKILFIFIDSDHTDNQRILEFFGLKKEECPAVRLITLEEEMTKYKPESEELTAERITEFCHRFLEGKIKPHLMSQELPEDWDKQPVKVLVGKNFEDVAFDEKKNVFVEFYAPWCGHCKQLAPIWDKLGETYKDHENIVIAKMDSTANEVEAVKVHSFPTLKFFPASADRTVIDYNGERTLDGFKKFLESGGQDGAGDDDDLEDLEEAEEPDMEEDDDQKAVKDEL

behaviour as stop reagent ([1]; 2 mM bacitracin added 30 min after initiation of the reaction): slow inhibitor
Hill slope ([1]; dose-response curve, non-linear regression): 1.2±0.2 and 1.2
IC50 ([1]; inhibitor incubated with enzyme and insulin 10 minutes prior to initiation with dithiothreitol, dose-response): 152 ± 25 µM
SMILES: CC[C@H](C)[C@H](N)C1=N[C@H](C(=O)N[C@@H](CC(C)C)C(=O)N[C@H](CCC(=O)O)C(=O)N[C@H](C(=O)N[C@H]2CCCCNC(=O)[C@H](CC(N)=O)NC(=O)[C@@H](CC(=O)O)NC(=O)[C@H](Cc3cnc[nH]3)NC(=O)[C@@H](Cc3ccccc3)NC(=O)[C@H]([C@@H](C)CC)NC(=O)[C@@H](CCCN)NC2=O)[C@@H](C)CC)CS1 [bacitracin] (HELM PEPTIDE1{[CC[C@H](C)[C@H](N)C1=N[C@H](C(=O)[*:2])CS1].L.[dE].I.K.[NCCC[C@@H](N[*:1])C(=O)[*:2]].I.[dF].H.[dD].N}$PEPTIDE1,PEPTIDE1,5:R3-11:R2$$$V2.0)
inhibition of the enzyme reaction ([1]; bacitracin incubated with the enzyme prior to the addition of dithiothreitol): dramatically inhibited the enzyme reaction
IC50 (PDI): ~200 µM
